Laboratory results from ChEMBL document CHEMBL1201862, “PubChem BioAssay data set” (2004).
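Briefly, cells in 96-well plates were exposed to five compound concentrations for 48 h, and endpoints were estimated by linear interpolation. Abbreviation: GI50, concentration required for 50% inhibition of growth.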 The source made the active and inactive calls. No stated cut-off is given here; in the data, active = GI50 up to about 1.1 µM and inactive = higher.

What was measured:
Experiment in all cases: NCI anticancer screen, dose series, 48 h
DMS-114 = test system: DMS-114
HOP-18 = test system: HOP-18
KM-20L2 = test system: KM-20L2
M19-MEL = test system: M19-MEL
RXF 631 = test system: RXF 631
SNB-78 = test system: SNB-78
XF498 = test system: XF498
DLD-1 = test system: DLD-1
DMS-273 = test system: DMS-273

Measured: GI50

CN(C)CCn1cnc2sc3ccccc3c21
inactive: DMS-114 > 100 µM | HOP-18 20.2 µM | KM-20L2 > 100 µM | M19-MEL > 100 µM | RXF 631 > 100 µM | SNB-78 > 100 µM | XF498 > 100 µM

Cc1ccc(S(=O)(=O)C(C#N)c2nc3ccccc3nc2-n2ccnc2)cc1 (stereo unspecified)
inactive: DLD-1 > 100 µM | DMS-114 > 100 µM | DMS-273 > 100 µM | HOP-18 > 100 µM | M19-MEL > 100 µM | SNB-78 > 100 µM | XF498 > 100 µM

N#CN1CCC=C(c2cc3ccccc3[nH]2)C1
inactive: DLD-1 370 µM | DMS-273 428 µM | HOP-18 > 448 µM | KM-20L2 > 448 µM | M19-MEL 243 µM | RXF 631 281 µM

CCOC(=O)C1=C(Nc2ccc(NC3=C(C(=O)OCC)C(=O)CS3)cc2)SCC1=O
inactive: DLD-1 20.7 µM | DMS-114 22.6 µM | DMS-273 20.7 µM | KM-20L2 35.2 µM | M19-MEL 21.7 µM | SNB-78 33.6 µM | XF498 13.5 µM

Cc1cc(C2CCCCC2)n(O)c(=O)c1 [CICLOPIROX OLAMINE]
inactive: DLD-1 5.46 µM | DMS-114 4.74 µM | HOP-18 39.8 µM | KM-20L2 12 µM | M19-MEL 7.52 µM | RXF 631 5.37 µM | XF498 10.7 µM

Cc1cc(N(CCC#N)CCC#N)ccc1/N=N/c1ccc([N+](=O)[O-])cc1
inactive: DMS-114 19 µM | DMS-273 17 µM | KM-20L2 > 100 µM | M19-MEL > 100 µM | SNB-78 34.1 µM

O=C1/C(=C/c2cccc([N+](=O)[O-])c2)COc2ccccc21
inactive: DLD-1 2.94 µM | DMS-114 2.84 µM | DMS-273 1.95 µM | HOP-18 4.55 µM | KM-20L2 4.99 µM | M19-MEL 2.32 µM | RXF 631 6 µM | SNB-78 6.53 µM

CCOC(=O)C1C(NC(N)=O)N(Cc2ccccc2)C(=O)N1Cc1ccccc1 (stereo unspecified)
inactive: DLD-1 > 100 µM | DMS-114 > 100 µM | DMS-273 > 100 µM | HOP-18 > 100 µM | KM-20L2 41.3 µM | M19-MEL > 100 µM | RXF 631 > 100 µM | SNB-78 15.4 µM | XF498 > 100 µM

CC1CC[C@]2(C(=O)O)CCC3(C)C(=CC(=O)C4[C@@]5(C)CCC(=O)C(C)(C)C5CC[C@]43C)[C@@H]2[C@H]1C (stereo partly specified)
inactive: DMS-114 19.7 µM | HOP-18 31.9 µM | KM-20L2 > 10 µM | M19-MEL 23.3 µM | RXF 631 27.3 µM | SNB-78 46.2 µM | XF498 10 µM

C=CC1(C)/C(=N\O)C(C)(CC)C(=O)N1O (stereo unspecified)
inactive: DLD-1 > 100 µM | DMS-114 > 100 µM | DMS-273 > 100 µM | HOP-18 > 100 µM | M19-MEL > 100 µM | RXF 631 > 100 µM | SNB-78 > 100 µM | XF498 > 100 µM

CC(=O)NC(CCCN(Cc1ccccc1)C(=O)N(CCCl)N=O)C(=O)NCc1ccccc1 (stereo unspecified)
inactive: DLD-1 62.7 µM | DMS-114 > 100 µM | DMS-273 41 µM | HOP-18 > 100 µM | KM-20L2 59.6 µM | SNB-78 54.1 µM | XF498 > 37.8 µM

Cc1cc(OCC(O)CO)ccc1-c1ccccc1 (stereo unspecified)
inactive: DMS-114 > 100 µM | DMS-273 > 100 µM | HOP-18 > 100 µM | KM-20L2 > 100 µM | M19-MEL > 100 µM | SNB-78 > 100 µM | XF498 37.1 µM

COCOCC/C=C/C=O
inactive: DLD-1 > 100 µM | DMS-114 > 100 µM | HOP-18 > 100 µM | KM-20L2 > 100 µM | SNB-78 > 100 µM | XF498 > 100 µM
